Test [1] has as its target T1, Retinoic acid receptor RXR-alpha (Homo sapiens) (UniProt P19793).
T1 sequence (whole entry): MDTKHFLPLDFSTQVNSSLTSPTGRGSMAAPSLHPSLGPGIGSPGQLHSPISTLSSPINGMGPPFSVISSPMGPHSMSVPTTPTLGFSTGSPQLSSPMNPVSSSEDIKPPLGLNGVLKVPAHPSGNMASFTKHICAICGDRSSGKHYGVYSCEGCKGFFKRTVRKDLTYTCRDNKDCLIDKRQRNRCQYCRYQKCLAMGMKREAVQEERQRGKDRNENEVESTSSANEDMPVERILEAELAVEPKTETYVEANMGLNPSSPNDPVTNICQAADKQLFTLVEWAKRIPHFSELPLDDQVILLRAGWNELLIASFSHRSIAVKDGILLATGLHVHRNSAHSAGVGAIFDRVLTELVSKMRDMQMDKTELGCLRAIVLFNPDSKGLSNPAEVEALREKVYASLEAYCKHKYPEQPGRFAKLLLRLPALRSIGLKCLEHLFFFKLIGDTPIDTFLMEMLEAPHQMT
Put plainly: Displacement of 6-(Ethyl-{5-isobutoxy-4-isopropyl-2-[(10-oxo-2,3,5,6-tetrahydro-1H,4H,10H-11-oxa-3a-aza-benzo[de]anthracene-9-carbonyl)-amino]-phenyl}-amino)-nicotinic acid from human RXRalpha-LBD by fluorescence binding assay.

In test [2] the target is T2, Retinoic acid receptor RXR-alpha (Homo sapiens, UniProt P19793).
T2 sequence (P19793 whole entry): T1 sequence (whole entry)
Put plainly: Displacement of [3H]9cis-RA from human RXRalpha-LBD by competitive binding assay. Background: Loss of bound radioactivity is the signal in a displacement assay; it reports binding, not function.

Test [3] deals with T2, Retinoic acid receptor RXR-alpha. The test can be described thus: Antagonist activity at human RXRalpha expressed in COS-7 cells assessed as suppression of NEt-TMN-induced receptor transactivation by luciferase reporter gene assay. In kind it is cell-based. Conditions: read-out: pA2 (converted). In general terms: In a reporter assay the amount or activity of a reporter protein is the signal.

The source made the active and inactive calls. The rule behind the calls is not given here.

As for `CCCCC/C=C\C/C=C\C/C=C\C/C=C\CCCC(=O)O`, the result in test [1] was Active.
Regarding `C=CCc1ccc(O)c(-c2ccc(O)c(CC=C)c2)c1`, the result in test [1] was Active.
The term Ki denotes a measure of affinity in units of concentration, obtained from inhibition or displacement. The low end stands for higher affinity, the high end for lower affinity. For `CCN(c1ccc(C(=O)O)cn1)c1cc(OCC(C)C)c(C(C)C)cc1NC(=O)c1ccccc1`, in test [2], the affinity corresponds to a Ki of 425 nM. Moreover, in test [3], the Kb is 47.9 nM.
Regarding `CC/C=C\C/C=C\C/C=C\C/C=C\C/C=C\C/C=C\CCC(=O)O`, the result in test [1] was Active.
For the compound `CC/C=C\C/C=C\C/C=C\C/C=C\C/C=C\CCCC(=O)O`, the outcome in test [1] was Active.

The values are drawn from ChEMBL document CHEMBL4765485, “Convenient Retinoid X Receptor Binding Assay Based on Fluorescence Change of the Antagonist NEt-C343” (J Med Chem, 2021).
